Results published in PMC12144510, “SIRT3 Functions as an Eraser of Histone H3K9 Lactylation to Modulate Transcription for Inhibiting the Progression of Esophageal Cancer” (Molecular & Cellular Proteomics : MCP, 2025).
Entries after “also recorded” stand apart in the source; their conditions may differ.

Assays:
[1] = test system: H3K9la in HEK 293T cells; experiment: H3K9la level after sodium lactate stimulation; format: cell-based, human; details: 20 mM sodium lactate, 24 h, Figure S4B
Description: Histone was isolated from HEK 293T cells by acid extraction. In short, HEK 293T cells were treated with 20 mM sodium lactate for 24 h and harvested by centrifugation. The harvested HEK 293T cells were resuspended with lysis buffers (10 mM Tris–HCl pH 8.0, 1 mM KCl, 1.5 mM MgCl2, 1 mM DTT, 2 mM PMSF, and Roche Complete EDTA free protease inhibitor) and incubated at 4 °C for 1 h. The intact nuclei were centrifuged at 2000g at 4 °C for 10 min to form pellets. To extract histones, 0.4 M H2SO4 was added to the suspension nucleus and then rotated overnight at 4 °C. After removal of nuclear debris by centrifugation at 10,000g at 4 °C for 10 min, histone was precipitated by adding 100% trichloroacetic acid (trichloroacetic acid final concentration 33%). The precipitated histones were incubated at 4 °C for 10 min and washed with acetone twice. The dried protein particles were dissolved with ddH2O. Subsequently, 4 ∼ 6 μg histone was incubated with 10 μM SIRT3 in 100 μl PBS supplemented by 5 mM NAD^+ at 37 °C for 5 h. The lactylation levels at histone were detected by Western blot.

[2] = test system: KYSE30 cells; experiment: Cell proliferation / viability (CCK-8); format: cell-based, human; details: ESCC cell (KYSE30), CCK-8, n = 8; supplemental Fig. S2G
[3] = test system: ESCC cell; experiment: Colony formation assay; format: cell-based, human
Description: The cells (KYSE30 cells with SIRT3 KO and overexpression) to be observed were counted, and 1000 cells/well were inoculated into the 12-well plate culture plate, and the medium was changed every 3 days. About a week after cell culture, the cells were washed twice with PBS and fixed with 1 ml 4% paraformaldehyde for 10 min. The cells were stained with crystal violet solution for 5 to 10 min, and the excess crystal violet solution was washed away with PBS. The formation of cell clones was photographed. The results were analyzed by ImageJ software (v.ImageJ2).
The cells were counted and 1000 cells were inoculated in 6-well plate plates, and the medium was changed every 3 days. After about 1 week of cell culture, the cells were washed twice with PBS and fixed with 1 ml 4% paraformaldehyde for 30 min. Dye crystal violet for 5 to 10 min and then the cells were washed with PBS. The formation of cell clones was photographed and analyzed using ImageJ software.

[4] = test system: KYSE30 cells; experiment: Cell migration (wound healing assay); format: cell-based, human; details: n = 8, supplemental Fig. S2H
Description: The wound healing assay involved seeding cells in 6-well plates. After the cells (KYSE30 cells with SIRT3 KO and overexpression) were fused, they were scraped off with the tip of the pipette, and the floating cells were washed away with PBS. Immediately afterward, the wounds were photographed. After culture in serum-free medium for 24 h, the wounds were photographed again.

[5] = test system: H3K9la; experiment: H3K9la level in cells with SIRT3 inhibitor (Western blot); format: cell-based, human
[6] = test system: SIRT3; design: method as in PMID 26120888; details: cited from earlier work

Row | Compound | H3K9la level [1] | cell proliferation [2] | colony formation [3] | cell migration ability [4] | delactylation of SIRT3 with inhibitor ([5]; Figure S2F) | level of H3K9la in cells ([5]; compared with dimethyl sulfoxide, supplemental Fig. S2F) | SIRT3 inhibition selectivity [6]
1 | CC(O)C(=O)[O-].[Na+] (stereo not shown) [sodium lactate] | increased | – | – | – | – | – | –
2 | c1cncc(-c2cn[nH]n2)c1 [3-TYP] | – | significantly increased; also recorded: Increasing efficiencies of proliferation | Increasing efficiencies of proliferation and colony formation | significantly increased | decreasing delactylation | increased H3K9la levels; also recorded: significantly increased | selective SIRT3 inhibitor
